The assay concerns the target Gonadotropin-releasing hormone receptor (Rattus norvegicus) (UniProt P30969). Kind of assay: Compound was evaluated in cloned rat Gonadotropin-releasing hormone receptor assay for its ability to displace the binding of [125 I-Tyr, DLeu, NMeLeu, Pro-NEt]GnRH agonist.

Gonadotropin-releasing hormone receptor (Rattus norvegicus), sequence (P30969 whole entry, looked up): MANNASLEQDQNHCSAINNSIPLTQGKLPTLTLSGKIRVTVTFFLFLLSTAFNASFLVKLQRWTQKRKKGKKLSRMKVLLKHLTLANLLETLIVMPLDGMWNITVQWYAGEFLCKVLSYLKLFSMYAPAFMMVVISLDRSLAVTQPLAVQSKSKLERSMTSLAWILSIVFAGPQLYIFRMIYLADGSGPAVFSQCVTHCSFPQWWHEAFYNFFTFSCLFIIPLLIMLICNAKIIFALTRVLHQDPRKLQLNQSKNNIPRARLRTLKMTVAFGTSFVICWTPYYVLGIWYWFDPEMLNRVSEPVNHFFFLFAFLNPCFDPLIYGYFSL

Usually Ki stands for the equilibrium dissociation constant of an inhibitor or competing ligand from its target. Higher therefore signals lower affinity. On to `COc1ccc(-c2nc3n(Cc4ccccc4F)c(C)c(-c4ccc5c(c4)OCO5)c(=O)n3c2CN(C)CCc2ccccn2)cc1` [6-Benzo[1,3]dioxol-5-yl-8-(2-fluoro-benzyl)-2-(4-methoxy-phenyl)-7-methyl-3-{[methyl-(2-pyridin-2-yl-ethyl)-amino]-methyl}-8H-imidazo[1,2-a]pyrimidin-5-one], for which affinity was put at a Ki of 12 µM.

The record behind these values is BindingDB's records for doi:10.1016/s0960-894x(02)00371-2 (Neurocrine Biosciences, 2002).
